In ChEMBL document CHEMBL5608177, “Antitumor activity and transcriptome sequencing (RNA-seq) analyses of hepatocellular carcinoma cells in response to exposure triterpene-nucleoside conjugates” (Eur J Med Chem, 2024):
≈ marks a conversion by molar mass, not a printed value. Calls of active or inactive are those of the source. The calls are words filed in the database; no cut-off is given here.

Assays:
[1] = system: SMMC-7721; test: Induction of apoptosis in human SMMC-7721 cells assessed as late apoptotic cells at 15 uM incubated for 24 hrs by Annexin V-FITC and propidium iodide staining based flow cytometric analysis (reference value: 0.09 %); type: functional
[2] = system: SMMC-7721; test: Antitumor activity against human SMMC-7721 cells xenografted in BALB/c mouse assessed as reduction in tumor growth at 10 mg/kg,ip administrated for 3 weeks; type: functional, organism-based
[3] = system: HeLa; test: Antiproliferative activity against human HeLa cells assessed as inhibition of cell growth incubated for 48 hrs by CCK-8 reagent based spectrophotometric analysis; type: functional
[4] = system: SMMC-7721; test: Induction of apoptosis in human SMMC-7721 cells assessed as late apoptotic cells at 20 uM incubated for 24 hrs by Annexin V-FITC and propidium iodide staining based flow cytometric analysis (reference value: 0.14 %); type: functional
[5] = system: SMMC-7721; test: Induction of apoptosis in human SMMC-7721 cells assessed as upregulation of Bax/Bcl-2 ratio at 20 uM incubated for 24 hrs by Western blotting analysis; type: functional, cell-based
[6] = system: SMMC-7721; test: Antitumor activity against human GFP-stained SMMC-7721 cells inoculated in zebrafish larvae assessed as reduction in tumor growth at 5 to 20 uM incubated for 48 hrs by confocal laser scanning microscopy; type: functional, cell-based; conditions: dose 5-20 µM
[7] = system: SMMC-7721; test: Induction of apoptosis in human SMMC-7721 cells assessed as early apoptotic cells at 20 uM incubated for 24 hrs by Annexin V-FITC and propidium iodide staining based flow cytometric analysis (reference value: 0.28 %); type: functional
[8] = system: SMMC-7721; test: Induction of apoptosis in human SMMC-7721 cells assessed as upregulation of LC3 expression incubated for 24 hrs by Western blotting analysis; type: functional, cell-based
[9] = system: SMMC-7721; test: Induction of apoptosis in human SMMC-7721 cells assessed as viable cells at 15 uM incubated for 24 hrs by Annexin V-FITC and propidium iodide staining based flow cytometric analysis (reference value: 99.2 %); type: functional; conditions: read-out: Activity
[10] = system: SMMC-7721; test: Antitumor activity against human SMMC-7721 cells xenografted in BALB/c mouse assessed as reduction in tumor weight at 10 mg/kg,ip administrated daily for 3 weeks (reference value: 0.573 +/- 0.137 g); type: functional
[11] = system: SMMC-7721; test: Induction of apoptosis in human SMMC-7721 cells assessed as viable cells at 15 uM incubated for 24 hrs in presence of zVAD by Annexin V-FITC and propidium iodide staining based flow cytometric analysis (reference value: 99.2 %); type: functional; conditions: read-out: Activity
[12] = system: SMMC-7721; test: Antitumor activity against human SMMC-7721 cells xenografted in BALB/c mouse assessed as inhibition of tumor growth at 10 mg/kg,ip administrated daily for 3 weeks relative to control; type: functional; parameters: scale not given: the % may be the effect or the level left
[13] = system: SMMC-7721; test: Induction of apoptosis in human SMMC-7721 cells assessed as upregulation of Bax expression incubated for 24 hrs by Western blotting analysis; type: functional, cell-based
[14] = system: PC-3; test: Antiproliferative activity against human PC-3 cells assessed as inhibition of cell growth incubated for 48 hrs by CCK-8 reagent based spectrophotometric analysis; type: functional; conditions: PC-3, 48 h
[15] = system: SMMC-7721; test: Induction of apoptosis in human SMMC-7721 cells assessed as upregulation of Bax/Bcl-2 ratio incubated for 24 hrs by Western blotting analysis; type: functional, cell-based
[16] = Toxicity in Zebrafish embryo assessed as reduction in survival rate at upto 100 uM incubated for 48 hrs by microscopic analysis; parameters: species or system Danio rerio; conditions: in vivo
[17] = Aqueous solubility of the compound in […] by HPLC analysis; type: physicochemical
[18] = Inhibition of PI3K/AKT/mTOR signalling pathway in human SMMC-7721 cells at 10 uM incubated for 24 hrs by transcriptome analysis; type: cell-based
[19] = system: KYSE-150 cell line; test: Antiproliferative activity against human KYSE-150 cell line assessed as inhibition of cell growth incubated for 48 hrs by CCK-8 reagent based spectrophotometric analysis; type: functional; conditions: KYSE-150, 48 h
[20] = system: SMMC-7721; test: Induction of apoptosis in human SMMC-7721 cells assessed as downregulation of BCL-2 expression at 15 uM incubated for 24 hrs by Western blotting analysis; type: functional, cell-based
[21] = system: SMMC-7721; test: Induction of apoptosis in human SMMC-7721 cells assessed as early apoptotic cells at 15 uM incubated for 24 hrs by Annexin V-FITC and propidium iodide staining based flow cytometric analysis (reference value: 0.07 %); type: functional
[22] = Toxicity in BALB/c mouse xenografted with human SMMC-7721 cells assessed as change in body weight at 10 mg/kg,ip administrated daily for 3 weeks; type: organism-based; conditions: in vivo, 504 h
[23] = system: A549; test: Antiproliferative activity against human A549 cells assessed as inhibition of cell growth incubated for 48 hrs by CCK-8 reagent based spectrophotometric analysis; type: functional; conditions: A549, 48 h
[24] = system: SMMC-7721; test: Antitumor activity against human SMMC-7721 cells xenografted in BALB/c mouse assessed as reduction in tumor weight at 10 mg/kg,ip administrated for 3 weeks; type: functional, organism-based
[25] = system: SMMC-7721; test: Induction of apoptosis in human SMMC-7721 cells assessed as early apoptotic cells at 15 uM incubated for 24 hrs in presence of zVAD by Annexin V-FITC and propidium iodide staining based flow cytometric analysis (reference value: 0.07 %); type: functional
[26] = system: SMMC-7721; test: Antitumor activity against human GFP-stained SMMC-7721 cells inoculated in zebrafish larvae assessed as reduction in tumor growth at < 10 uM incubated for 48 hrs by confocal laser scanning microscopy; type: functional, cell-based
[27] = system: SMMC-7721; test: Antitumor activity against human GFP-stained SMMC-7721 cells inoculated in zebrafish larvae assessed as reduction in tumor growth by measuring survival rate at 10 uM incubated for 48 hrs by confocal laser scanning microscopy; type: functional
[28] = Toxicity in Zebrafish embryo assessed as reduction in survival rate at >= 30 uM incubated for 48 hrs by microscopic analysis relative to control; parameters: species or system Danio rerio; conditions: zebrafish embryos

SMILES | Activity [1] | IC50 [3] | Activity [4] | Activity [7] | viability at 15 µM [9] | viability at 15 µM [11] | IC50 [14] | Activity [16] | IC50 [19] | Activity [21] | IC50 [23] | Activity [25] | also measured
C=C(C)[C@@H]1CC[C@]2(C(=O)OC)CC[C@]3(C)[C@H](CC[C@@H]4[C@@]5(C)C[C@@H](Cc6cn([C@H]7C[C@H](n8cc(C)c(O)nc8=O)O[C@@H]7CO)nn6)C(=O)C(C)(C)[C@@H]5CC[C@]43C)[C@@H]12 | 15.2% | 6.07 µM | 18.9% | 0.089% | 68.2% | 87.9% | 10.1 µM | Non-Toxic | 5.68 µM | 0.04% | 11.9 µM | 0.04% | Activity [2]: Active; Activity [5]: Active; Activity [6]: Active; Activity [8]: Dose-Dependent Effect; Activity [10]: 0.275 g; Activity [12]: 52%; Activity [13]: Dose-Dependent Effect; Activity [15]: Dose-Dependent Effect; solubility [17]: 2.56 µM (≈ 1.98 µg/mL); inhibition [18]: Active; Activity [20]: Active; Activity [22]: Non-Toxic; Activity [24]: Active
C=C(C)[C@@H]1CC[C@]2(C(=O)OC)CC[C@]3(C)[C@H](CC[C@@H]4[C@@]5(C)C[C@@H](Cc6cn([C@]7(CO)O[C@@H](n8ccc(O)nc8=O)[C@@H](F)[C@@H]7O)nn6)C(=O)C(C)(C)[C@@H]5CC[C@]43C)[C@@H]12 | 11.4% | 11.8 µM | 17.5% | 0.43% | 72.8% | 82% | 22.9 µM | Non-Toxic | 10.6 µM | 0.06% | 17.7 µM | 0.03% | Activity [26]: inactive; Activity [27]: 85%; survival at 48 h, 30 µM [28]: < 25%
